Laboratory results from patent US6706663B2, “Herbicidal 3-heterocyclic substituted benzisothiazole and benzisoxazole compounds” (Wyeth, priority 2000, dated 2004).

Legend:
[1] = test system: ABUTH (Abutilon theophrasti); test: Preemergence herbicidal evaluation; type: in vivo, Medic.; details: rated 4-5 weeks after treatment
Text: (§1) Results of herbicide evaluation are expressed on a rating scale (0-9). The scale is based upon a visual observation of plant stand, vigor, malformation, size, chlorosis and overall plant appearance as compared with a control.
(§2) The preemergence herbicidal activity of the test compounds of the present invention is exemplified by the following tests in which the seeds of a variety of monocotyledonous and dicotyledonous plants are separately mixed with potting soil and planted on top of approximately one inch of soil in separate pint cups. […] The treated cups are then placed on greenhouse benches, watered and cared for in accordance with conventional greenhouse procedures. From four to five weeks after treatment, the tests are terminated and each cup is examined and rated according to the rating system provided in Example 87. The plant species used and the compounds evaluated are the same as those shown in Example 87.

[2] = test system: IPOHE (Ipomoea hederacea); test: Preemergence herbicidal evaluation; type: in vivo, (L.) Jacq.; details: rated 4-5 weeks after treatment
Text: as §1, §2

[3] = test system: ZEAMX (Corn, Field); test: Postemergence herbicidal evaluation; type: in vivo, Zea mays, L.; details: postemergence
Description: (§3) In the tests, seedling plants are grown in jiffy flats for about two weeks. […] After spraying, the plants are placed on greenhouse benches and are cared for in accordance with conventional greenhouse procedures. From four to five weeks after treatment, the seedling plants are examined and rated according to the rating system set forth below. Where more than one test is involved for a given compound, the data are averaged.
as §1

[4] = test system: TRZAWR (Wheat, Winter, cv Riband); test: Postemergence herbicidal evaluation; type: in vivo, Triticum aestivum; details: postemergence
Description: as §3, §1

[5] = test system: ECHORC (Echinochloa oryzoides); test: Flooded paddy, preemergence weed control; type: in vivo, Echinochloa oryzoides (Ard.) Fritsch.; details: rated 3-4 weeks after treatment, 0-9 rating scale
Description: as §1
(§4) Preemergence herbicidal activity under flooded paddy conditions is determined as follows: plant seeds or propagating organs are planted in the top 0.5 cm of silt loam soil in 32 oz. plastic containers with a diameter of 10.5 cm and no drainage holes. Water is added to these containers and maintained at 1.5 to 3 cm above the soil surface for the duration of the experiment. […] The treated containers are placed on greenhouse benches and cared for in accordance with conventional greenhouse procedures.

[6] = test system: ORYSAT (Rice, Tebonnet); test: Preemergence herbicidal evaluation; type: in vivo, Oryza sativa, (L.) Tebonnet; details: rated 4-5 weeks after treatment
Text: as §1, §2

[7] = test system: TRZAWR (Wheat, Winter, cv Riband); test: Preemergence herbicidal evaluation; type: in vivo, Triticum aestivum; details: rated 4-5 weeks after treatment
Text: as §1, §2

[8] = test system: CASOB (Cassia obtusifolia); test: Preemergence herbicidal evaluation; type: in vivo, L.; details: rated 4-5 weeks after treatment
Text: as §1, §2

[9] = test system: CHEAL (Chenopodium album); test: Preemergence herbicidal evaluation; type: in vivo, L.; details: rated 4-5 weeks after treatment
Text: as §1, §2

[10] = test system: AMBEL (Ambrosia artemisifolia); test: Preemergence herbicidal evaluation; type: in vivo, L.; details: rated 4-5 weeks after treatment
Text: as §1, §2

[11] = test system: ZEAMX (Corn, Field); test: Preemergence herbicidal evaluation; type: in vivo, Zea mays, L.; details: rated 4-5 weeks after treatment
Text: as §1, §2

[12] = test system: GALAP (Galium aparine); test: Preemergence herbicidal evaluation; type: in vivo; details: rated 4-5 weeks after treatment
Text: as §1, §2

[13] = test system: GLXMAW (Soybean, Williams); test: Postemergence herbicidal evaluation; type: in vivo, Glycine max, (L.) Merr. cv Williams; details: postemergence
Description: as §3, §1

[14] = test system: GLXMAW (Soybean, Williams); test: Preemergence herbicidal evaluation; type: in vivo, Glycine max, (L.) Merr. cv Williams; details: rated 4-5 weeks after treatment
Text: as §1, §2

[15] = test system: CASOB (Cassia obtusifolia); test: Postemergence herbicidal evaluation; type: in vivo, L.; details: postemergence
Description: as §3, §1

[16] = test system: CHEAL (Chenopodium album); test: Postemergence herbicidal evaluation; type: in vivo, L.; details: postemergence
Description: as §3, §1

[17] = test system: AMBEL (Ambrosia artemisifolia); test: Postemergence herbicidal evaluation; type: in vivo, L.; details: postemergence
Description: as §3, §1

[18] = test system: IPOHE (Ipomoea hederacea); test: Postemergence herbicidal evaluation; type: in vivo, (L.) Jacq.; details: postemergence
Description: as §3, §1

[19] = test system: ECHCG (Echinochloa crus-galli); test: Postemergence herbicidal evaluation; type: in vivo, (L.) Beau; details: postemergence
Description: as §3, §1

[20] = test system: ABUTH (Abutilon theophrasti); test: Postemergence herbicidal evaluation; type: in vivo, Medic.; details: postemergence
Description: as §3, §1

[21] = test system: ECHCG (Echinochloa crus-galli); test: Preemergence herbicidal evaluation; type: in vivo, (L.) Beau; details: rated 4-5 weeks after treatment
Text: as §1, §2

[22] = test system: SETVI (Setaria viridis); test: Preemergence herbicidal evaluation; type: in vivo, (L.) Beau; details: rated 4-5 weeks after treatment
Text: as §1, §2

[23] = test system: ORYSAT (Rice, Tebonnet); test: Postemergence herbicidal evaluation; type: in vivo, Oryza sativa, (L.) Tebonnet; details: postemergence
Description: as §3, §1

[24] = test system: SAGPY (Sagittaria pygmaea); test: Flooded paddy, preemergence weed control; type: in vivo, L.; details: rated 3-4 weeks after treatment, 0-9 rating scale
Description: as §1, §4

[25] = test system: SETVI (Setaria viridis); test: Postemergence herbicidal evaluation; type: in vivo, (L.) Beau; details: postemergence
Description: In the tests, seedling plants are grown in jiffy flats for about two weeks. The test compounds are dispersed in 50/50 acetone/water mixtures containing 0.5% TWEEN® 20, a polyoxyethylene sorbitan monolaurate surfactant of Atlas Chemical Industries, in sufficient quantities to provide the equivalent of about 0.0040 kg to 1.000 kg per hectare of active compound when applied to the plants through a spray nozzle operating at 40 psi for a predetermined time. After spraying, the plants are placed on greenhouse benches and are cared for in accordance with conventional greenhouse procedures. From four to five weeks after treatment, the seedling plants are examined and rated according to the rating system set forth below. Where more than one test is involved for a given compound, the data are averaged.
as §1

[26] = test system: MOOVA (Monochoria vaginalis); test: Flooded paddy, preemergence weed control; type: in vivo, Presl.; details: rated 3-4 weeks after treatment, 0-9 rating scale
Description: as §1, §4

[27] = test system: GALAP (Galium aparine); test: Postemergence herbicidal evaluation; type: in vivo; details: postemergence
Description: as §3, §1

[28] = test system: CYPIR (Cyperus iria); test: Flooded paddy, preemergence weed control; type: in vivo; details: rated 3-4 weeks after treatment, 0-9 rating scale
Description: as §1, §4

[29] = test system: ORYSAT (Rice, Tebonnet); test: Flooded paddy, post-transplant rice tolerance; type: in vivo, Oryza sativa, (L.) Tebonnet; details: in vivo
Description: as §1
The tolerance of transplanted rice to post-transplanted herbicide application is determined as follows: two ten-day-old rice seedlings (cv. Tebonnet) are transplanted into silt loam soil in 32 oz. plastic containers with a diameter of 10.5 cm and no drainage holes. After transplanting, the containers are flooded and the water level is maintained at 1.5 to 3 cm above the soil surface. […] The treated containers are placed on greenhouse benches, watered such that the water level is maintained as stated above, and cared for in accordance with conventional greenhouse procedures.

In the case of “3-[3-[5-(bromomethyl)-5-hydroxy-m-diaxan-2-yl]-1,2-benzisothiazol-5-yl]-1-methyl-6-(trifluoromethyl)uracil [Compound 69]”, the “Preemergence herbicidal rating ABUTH” value ([1]; Rate 0.0620 kg/ha) was 9.0, the “Preemergence herbicidal rating ABUTH” value ([1]; Rate 0.1250 kg/ha) was 9.0 and the “Preemergence herbicidal rating ABUTH” value ([1]; Rate 0.2500 kg/ha) was 9.0. For the same compound, the “Preemergence herbicidal rating IPOHE” value ([2]; Rate 0.0620 kg/ha) was 1.0, the “Preemergence herbicidal rating IPOHE” value ([2]; Rate 0.1250 kg/ha) was 9.0 and the “Preemergence herbicidal rating IPOHE” value ([2]; Rate 0.2500 kg/ha) was 9.0. The ZEAMX herbicidal rating ([3]; rate 0.0320 kg/ha) was 5.5, the ZEAMX herbicidal rating ([3]; rate 0.0620 kg/ha) was 5.5 and the TRZAWR herbicidal rating ([4]; rate 0.0320 kg/ha) was 4.0. The TRZAWR herbicidal rating ([4]; rate 0.0620 kg/ha) was 4.5, the “herbicidal rating, ECHORC” value ([5]; rate 0.0080 kg/ha) was 0.0 and the “herbicidal rating, ECHORC” value ([5]; rate 0.0320 kg/ha) was 0.0. The “herbicidal rating, ECHORC” value ([5]; rate 0.1250 kg/ha) was 3.0, the “Preemergence herbicidal rating ORYSAT” value ([6]; Rate 0.0620 kg/ha) was 1.0 and the “Preemergence herbicidal rating ORYSAT” value ([6]; Rate 0.1250 kg/ha) was 2.0. The “Preemergence herbicidal rating ORYSAT” value ([6]; Rate 0.2500 kg/ha) was 5.0, the “Preemergence herbicidal rating TRZAWR” value ([7]; Rate 0.0620 kg/ha) was 1.0 and the “Preemergence herbicidal rating TRZAWR” value ([7]; Rate 0.1250 kg/ha) was 2.0. For the same compound, the “Preemergence herbicidal rating TRZAWR” value ([7]; Rate 0.2500 kg/ha) was 5.0, the “Preemergence herbicidal rating CASOB” value ([8]; Rate 0.0620 kg/ha) was 0.0 and the “Preemergence herbicidal rating CASOB” value ([8]; Rate 0.1250 kg/ha) was 1.0. The “Preemergence herbicidal rating CASOB” value ([8]; Rate 0.2500 kg/ha) was 6.0, the “Preemergence herbicidal rating CHEAL” value ([9]; Rate 0.0620 kg/ha) was 9.0 and the “Preemergence herbicidal rating CHEAL” value ([9]; Rate 0.1250 kg/ha) was 9.0. The “Preemergence herbicidal rating CHEAL” value ([9]; Rate 0.2500 kg/ha) was 9.0, the “Preemergence herbicidal rating AMBEL” value ([10]; Rate 0.0620 kg/ha) was 7.0 and the “Preemergence herbicidal rating AMBEL” value ([10]; Rate 0.1250 kg/ha) was 9.0. The “Preemergence herbicidal rating AMBEL” value ([10]; Rate 0.2500 kg/ha) was 8.0, the “Preemergence herbicidal rating ZEAMX” value ([11]; Rate 0.0620 kg/ha) was 1.0 and the “Preemergence herbicidal rating ZEAMX” value ([11]; Rate 0.1250 kg/ha) was 3.0. For the same compound, the “Preemergence herbicidal rating ZEAMX” value ([11]; Rate 0.2500 kg/ha) was 7.0, the “Preemergence herbicidal rating GALAP” value ([12]; Rate 0.0620 kg/ha) was 7.0 and the “Preemergence herbicidal rating GALAP” value ([12]; Rate 0.1250 kg/ha) was 9.0. For the same compound, the “Preemergence herbicidal rating GALAP” value ([12]; Rate 0.2500 kg/ha) was 9.0, the GLXMAW herbicidal rating ([13]; rate 0.0320 kg/ha) was 7.5 and the GLXMAW herbicidal rating ([13]; rate 0.0620 kg/ha) was 7.0. The “Preemergence herbicidal rating GLXMAW” value ([14]; Rate 0.0620 kg/ha) was 2.0, the “Preemergence herbicidal rating GLXMAW” value ([14]; Rate 0.1250 kg/ha) was 9.0 and the “Preemergence herbicidal rating GLXMAW” value ([14]; Rate 0.2500 kg/ha) was 9.0. It also gave a CASOB herbicidal rating ([15]; rate 0.0320 kg/ha) of 0.0, a CASOB herbicidal rating ([15]; rate 0.0620 kg/ha) of 2.0 and a CHEAL herbicidal rating ([16]; rate 0.0320 kg/ha) of 9.0. It also gave a CHEAL herbicidal rating ([16]; rate 0.0620 kg/ha) of 7.0, an AMBEL herbicidal rating ([17]; rate 0.0320 kg/ha) of 9.0 and an AMBEL herbicidal rating ([17]; rate 0.0620 kg/ha) of 9.0. For the same compound, the IPOHE herbicidal rating ([18]; rate 0.0320 kg/ha) was 9.0, the IPOHE herbicidal rating ([18]; rate 0.0620 kg/ha) was 9.0 and the ECHCG herbicidal rating ([19]; rate 0.0320 kg/ha) was 2.0. It also gave an ECHCG herbicidal rating ([19]; rate 0.0620 kg/ha) of 3.0, an ABUTH herbicidal rating ([20]; rate 0.0320 kg/ha) of 9.0 and an ABUTH herbicidal rating ([20]; rate 0.0620 kg/ha) of 9.0. The “Preemergence herbicidal rating ECHCG” value ([21]; Rate 0.0620 kg/ha) was 4.0, the “Preemergence herbicidal rating ECHCG” value ([21]; Rate 0.1250 kg/ha) was 8.0 and the “Preemergence herbicidal rating ECHCG” value ([21]; Rate 0.2500 kg/ha) was 8.0. For the same compound, the “Preemergence herbicidal rating SETVI” value ([22]; Rate 0.0620 kg/ha) was 7.0, the “Preemergence herbicidal rating SETVI” value ([22]; Rate 0.1250 kg/ha) was 9.0 and the “Preemergence herbicidal rating SETVI” value ([22]; Rate 0.2500 kg/ha) was 9.0. For the same compound, the ORYSAT herbicidal rating ([23]; rate 0.0320 kg/ha) was 4.0, the ORYSAT herbicidal rating ([23]; rate 0.0620 kg/ha) was 4.0 and the “herbicidal rating, SAGPY” value ([24]; rate 0.0080 kg/ha) was 0.0. The “herbicidal rating, SAGPY” value ([24]; rate 0.0320 kg/ha) was 0.0, the “herbicidal rating, SAGPY” value ([24]; rate 0.1250 kg/ha) was 3.0 and the SETVI herbicidal rating ([25]; rate 0.0320 kg/ha) was 2.0. For the same compound, the SETVI herbicidal rating ([25]; rate 0.0620 kg/ha) was 4.0, the “herbicidal rating, MOOVA” value ([26]; rate 0.0080 kg/ha) was 0.0 and the “herbicidal rating, MOOVA” value ([26]; rate 0.0320 kg/ha) was 0.0. For the same compound, the “herbicidal rating, MOOVA” value ([26]; rate 0.1250 kg/ha) was 3.0, the GALAP herbicidal rating ([27]; rate 0.0320 kg/ha) was 4.0 and the GALAP herbicidal rating ([27]; rate 0.0620 kg/ha) was 6.0. The “herbicidal rating, CYPIR” value ([28]; rate 0.0080 kg/ha) was 0.0, the “herbicidal rating, CYPIR” value ([28]; rate 0.0320 kg/ha) was 0.0 and the “herbicidal rating, CYPIR” value ([28]; rate 0.1250 kg/ha) was 3.0.
In the case of `Cn1c(C(F)(F)F)cc(=O)n(-c2ccc3snc(-c4cccnc4)c3c2)c1=O` [Example 11], the “herbicidal rating, ORYSAT (rice tolerance)” value [29] was 0.0.
In the case of `Cn1c(C(F)(F)F)cc(=O)n(-c2ccc3c(c2)C(c2cccc[n+]2[O-])=NS3(=O)=O)c1=O` [Example 15], the “herbicidal rating, ORYSAT (rice tolerance)” value [29] was 0.0.
